Measured values reported in patent US20220089661A1 (priority 2019, published 2022).
pIC50: −log10 of the molar value. Values joined by “and” are separate entries in the source; they are usually repeats but may differ in a detail not shown here. Equal values may be shown once.

Experiments:
Format in all cases: cell-based
[1] = system: Fusarium graminearum
[2] = system: Fusarium graminearum; remark: listed apart in the source
[3] = system: Botrytis cinerea
[4] = system: Botrytis cinerea; remark: listed apart in the source

## OeDef7 (RICESLSHRFKGPCVRRGNCAAVCQTEGFPGGLCRGFRRRCFCTKHC; listed as Olea europaea)
[1]
  pIC50: 5.82 to 6.00 and 5.52 to 5.70
[2]
  MLC: 3 µM and 6 µM
[3]
  pIC50: 5.52 to 5.70 and 5.40 to 5.52
[4]
  MLC: 4 µM and 6 µM
